Experimental data taken from patent publication US20240158341A1, “COMPOUND, MANUFACTURING METHOD THEREFOR, ANTIMICROBIAL AGENT, AND MEDICINAL DRUG” (Murata Manufacturing Co., Ltd., priority 2021, published 2024).

Legend:
[1] = system: gram-positive bacteria; details: against gram-positive bacteria; Non-Patent Literature 1; cited from earlier work
[2] = system: Candida albicans; assay: Paper disc antimicrobial test; format: cell-based; details: 10 μg/6 mm disc
Description: (§1) An antimicrobial test against the following bacteria and fungi was performed using a paper disc (6 mm, manufactured by ADVANTEC) containing the compound (1a-1).
(§2) (3) Yeast • Candida albicans
(§3) An antimicrobial test was performed with a 10 μg/6 mm disc, using the culture solution of the above bacteria and fungi. The test was conducted in accordance with the method described in Koyama et al., Calpinactam, a new anti-mycobacterial agent, produced by Mortierella alpina FKI-4905, The Journal of Antibiotics (2010) 63, pages 183 to 186.

[3] = system: Bacillus subtilis; assay: Paper disc antimicrobial test; format: cell-based; details: 10 μg/6 mm disc
Description: as §1
(§4) (1) Gram-Positive Bacteria • Mycobacterium smegmatis • Bacillus subtilis • Staphylococcus aureus • Micrococcus luteus
as §3

[4] = system: Micrococcus luteus; assay: Paper disc antimicrobial test; format: cell-based; details: 10 μg/6 mm disc
Description: as §1, §4, §3

[5] = system: Mycobacterium smegmatis; assay: Paper disc antimicrobial test; format: cell-based; details: 10 μg/6 mm disc
Description: as §1, §4, §3

[6] = system: Staphylococcus aureus; assay: Paper disc antimicrobial test; format: cell-based; details: 10 μg/6 mm disc
Description: as §1, §4, §3

[7] = system: gram-positive bacteria; assay: Paper disc antimicrobial test, summary for gram-positive bacteria; format: cell-based; details: against gram-positive bacteria
Description: as §1, §4, §3

[8] = system: yeasts; assay: Paper disc antimicrobial test, summary for yeasts; format: cell-based; details: against yeasts
Description: as §1, §2, §3

Row | Molecule | antimicrobial activity [1] | Inhibitory zone [2] [mm] | Inhibitory zone [3] [mm] | Inhibitory zone [4] [mm] | Inhibitory zone [5] [mm] | Inhibitory zone [6] [mm] | antimicrobial action [7] | antimicrobial action [8]
1 | hazimycin A | had an antimicrobial activity |  |  |  |  |  |  | 
2 | [C-]#[N+][C@@H](Cc1ccc(O)c(-c2cc(C[C@H](NN)C(N)=O)ccc2O)c1)C(N)=O [compound (1a-1)] |  | 20 | 14 | 26 | 19 | 23 | showed an antimicrobial action | showed an antimicrobial action
